The values that follow are results of earlier work, collected in patent US20090215766A1, “TETRACYCLIC INHIBITORS OF JANUS KINASES” (Incyte Corporation, priority 2004, published 2009).

Structures are written as SMILES.

The test system of data set [1] is myeloid dendritic cells (DCs). The conditions noted are these: CD40-induced maturation of myeloid DCs.
In data set [2] the test system is IL-6-dependent MM cell lines.
Data set [3] concerns NOD mouse model of autoimmune type 1 diabetes.

In the case of `COc1cc2ncnc(Nc3ccc(O)c(Br)c3)c2cc1OC` [WHI-P-154], the “CD40-induced DC maturation effects (costimulatory molecule expression, IL-12 production, allogeneic stimulatory capacity)” value in data set [1] is listed as “prevented these effects”.
`N#C/C(=C\c1ccc(O)c(O)c1)C(=O)NCc1ccccc1` [tyrphostin AG490]: in data set [2], the “ERK2 and STAT3 phosphorylation” value is “inhibited”; the JAK2 kinase activity entry is given as “inhibited”; the apoptosis result is listed as “induced”; the cell proliferation result is recorded as “suppressed”.
For `COc1cc2ncnc(Nc3ccc(O)cc3)c2cc1OC` [JANEX-1], the onset of diabetes result in data set [3] is “delayed the onset of diabetes”.
